Assay [1] relates to ERK. The assay is described as follows: Intrinsic effect on ERK phosphorylation (western blot). It is filed as cell-based. Particulars: MAPK inhibitor added with PCK3145 derivative. As to the method:
In order to investigate the potential intracellular pathways triggered by the PCK3145 derivative, a gene-reporter assay using the SEAP (Secreted Alkaline Phosphatase) Mercury Profiling Kit (CLONTECH) was performed in glioma cells (U-87). This assay enables the monitoring of transcription factors that are triggered by a particular experimental condition by assaying the alkaline phosphatase activity in the extracellular media. […] The induction of the MAPK pathway by the PCK3145 derivative is further confirmed by the rapid and transient induction of ERK phosphorylation between 5-10 minutes (FIG. 8B) and is shown to be dose-dependent (FIG. 8C). Finally, the effects of the PCK3145 derivative were also compared to those of a scrambled peptide.

In assay [2] the test system is ERK. Conditions: cited from earlier work.
Another assay deals with tumor growth. Particulars: animals, previous results; cited from earlier work.
The test system of assay [3] is ERK. The assay is described as follows: Growth factor-induced ERK phosphorylation in HUVEC (western blot). It is filed as cell-based, Human. Conditions: serum-starved HUVEC, 300 μg/ml for 24 h, then VEGF. As to the method:
(§1) Cell culture. Human umbilical vein endothelial cells (HUVEC) and pulmonary aortic smooth muscle cells (PASMC) were obtained from Clonetics and maintained in endothelial cell basal medium-2, (EBM-2; Clonetics) and smooth muscle medium-2 (SmGM-2; Clonetics), respectively. Cells were cultured at 37° C. under a humidified atmosphere containing 5% CO2. For experimental purposes, cells were plated in 8 100-mm plastic dishes at 5,000 cells/cm^2 and were grown to confluence before overnight serum starvation. Cells were treated with vehicle or with a PCK3145 derivative diluted in 0.1 N NaOH, and stimulated with 50 ng/ml VEGF, PDGF or with 1 μM S1P.
Immunoprecipitation and immunoblotting procedures. After treatment, cells were washed once with phosphate-buffered saline (PBS) containing 1 mM sodium orthovanadate and were incubated in the same medium for 1 h at 4° C. The cells were solubilized on ice in lysis buffer (150 mM NaCl, 10 mM Tris-HCl, pH 7.4, 1 mM EDTA, 1 mM EGTA, 0.5% Nonidet P-40, 1% Triton X-100) containing 1 mM sodium orthovanadate. The cells were then scraped from the culture dishes and the resulting lysates were clarified by centrifugation at 10,000 g for 10 min. Protein concentrations were determined using the micro bicinchoninic acid method. For immunoprecipitation studies, lysates were clarified by a 1 h incubation at 4° C. with a mixture of Protein A/Protein G Sepharose beads. After removal of the Sepharose beads by low-speed centrifugation, identical amounts of protein (200 μg) from each sample were transferred to fresh tubes and incubated in lysis buffer overnight at 4° C. in the presence of 2 μg/ml of specific antibodies. Immunocomplexes were collected by incubating the mixture with 25 μl (50% suspension) of Protein A—(rabbit primary antibody) or Protein G—(mouse primary antibody) Sepharose beads, for 2 h. Nonspecifically-bound material was removed by washing the beads three times in 1 ml of lysis buffer containing 1 mM sodium orthovanadate, and bound material was solubilized in 25 μl of two-fold concentrated Laemmli sample buffer, boiled 5 min, and resolved by SDS-PAGE. The proteins were transferred onto polyvinylidene difluoride (PVDF) membranes, blocked 1 h at room temperature with Tris-buffered saline/Tween 20 (147 mM NaCl, 20 mM Tris/HCl, pH 7.5, and 0.1% Tween 20) containing 2% bovine serum albumin and incubated overnight at 4° C. with primary antibody.
VEGF is a strong activator of ERKs (Extracellular-signal-Regulated protein Kinases) 1 and 2 via VEGF receptor 2. In order to test the ability of the PCK3145 derivative in potentially antagonizing VEGF-mediated ERK phosphorylation, serum-starved quiescent endothelial cells (HUVEC) were incubated with vehicle (phosphate-buffered saline (PBS) pH 7.4) or PCK3145 derivative (300 μg/ml) for 24 h and then stimulated with VEGF, bFGF (basic Fibroblast Growth Factor) or S1P (sphingosine-1-phosphate). Cells were washed with PBS containing NaF/Na3VO4 and incubated in the same medium buffer for 1 h at 4° C. The cells were scraped from the culture dishes and the resulting lysates clarified by centrifugation. Western blotting and immunodetection using anti-phosphoERK and anti-ERK antibodies was then performed.

The target in another assay is T1, VEGFR-2 (Homo sapiens, UniProt P35968).
T1 construct: host or cells: HUVEC
The assay is described as follows: VEGF-induced VEGFR-2 phosphorylation in HUVEC (immunoprecipitation, western blot). It is filed as cell-based. Particulars: serum-starved HUVEC, 300 μg/ml; 24 h. How it is done: as §1
Immunoprecipitation and immunoblotting procedures. After treatment, cells were washed once with phosphate-buffered saline (PBS) containing 1 mM sodium orthovanadate and were incubated in the same medium for 1 h at 4° C. The cells were solubilized on ice in lysis buffer (150 mM NaCl, 10 mM Tris-HCl, pH 7.4, 1 mM EDTA, 1 mM EGTA, 0.5% Nonidet P-40, 1% Triton X-100) containing 1 mM sodium orthovanadate. The cells were then scraped from the culture dishes and the resulting lysates were clarified by centrifugation at 10,000 g for 10 min. Protein concentrations were determined using the micro bicinchoninic acid method. For immunoprecipitation studies, lysates were clarified by a 1 h incubation at 4° C. with a mixture of Protein A/Protein G Sepharose beads. After removal of the Sepharose beads by low-speed centrifugation, identical amounts of protein (200 μg) from each sample were transferred to fresh tubes and incubated in lysis buffer overnight at 4° C. in the presence of 2 μg/ml of specific antibodies. […]
The multifunctionality of VEGF at the cellular level results from its ability to initiate a diverse, complex and integrated network of signaling pathways via its major receptor, VEGFR-2. […] After each treatment, equal amounts of protein were immunoprecipitated with anti-VEGFR-2 polyclonal antibodies and analysed by Western blotting.

A further assay has as its system tumor cells. Particulars: cited from earlier work.
Another assay concerns skeletal metastasis. Particulars: cited from earlier work.

Where no end group is shown, it is not given here. The star is where a group is joined. Acm = CC(=O)NC*

Here are results for four molecules from patent US20050148514A1, “Method and composition for treatment of angiogenesis” (priority 2003, published 2005).

T1 sequence (P35968 20-1356): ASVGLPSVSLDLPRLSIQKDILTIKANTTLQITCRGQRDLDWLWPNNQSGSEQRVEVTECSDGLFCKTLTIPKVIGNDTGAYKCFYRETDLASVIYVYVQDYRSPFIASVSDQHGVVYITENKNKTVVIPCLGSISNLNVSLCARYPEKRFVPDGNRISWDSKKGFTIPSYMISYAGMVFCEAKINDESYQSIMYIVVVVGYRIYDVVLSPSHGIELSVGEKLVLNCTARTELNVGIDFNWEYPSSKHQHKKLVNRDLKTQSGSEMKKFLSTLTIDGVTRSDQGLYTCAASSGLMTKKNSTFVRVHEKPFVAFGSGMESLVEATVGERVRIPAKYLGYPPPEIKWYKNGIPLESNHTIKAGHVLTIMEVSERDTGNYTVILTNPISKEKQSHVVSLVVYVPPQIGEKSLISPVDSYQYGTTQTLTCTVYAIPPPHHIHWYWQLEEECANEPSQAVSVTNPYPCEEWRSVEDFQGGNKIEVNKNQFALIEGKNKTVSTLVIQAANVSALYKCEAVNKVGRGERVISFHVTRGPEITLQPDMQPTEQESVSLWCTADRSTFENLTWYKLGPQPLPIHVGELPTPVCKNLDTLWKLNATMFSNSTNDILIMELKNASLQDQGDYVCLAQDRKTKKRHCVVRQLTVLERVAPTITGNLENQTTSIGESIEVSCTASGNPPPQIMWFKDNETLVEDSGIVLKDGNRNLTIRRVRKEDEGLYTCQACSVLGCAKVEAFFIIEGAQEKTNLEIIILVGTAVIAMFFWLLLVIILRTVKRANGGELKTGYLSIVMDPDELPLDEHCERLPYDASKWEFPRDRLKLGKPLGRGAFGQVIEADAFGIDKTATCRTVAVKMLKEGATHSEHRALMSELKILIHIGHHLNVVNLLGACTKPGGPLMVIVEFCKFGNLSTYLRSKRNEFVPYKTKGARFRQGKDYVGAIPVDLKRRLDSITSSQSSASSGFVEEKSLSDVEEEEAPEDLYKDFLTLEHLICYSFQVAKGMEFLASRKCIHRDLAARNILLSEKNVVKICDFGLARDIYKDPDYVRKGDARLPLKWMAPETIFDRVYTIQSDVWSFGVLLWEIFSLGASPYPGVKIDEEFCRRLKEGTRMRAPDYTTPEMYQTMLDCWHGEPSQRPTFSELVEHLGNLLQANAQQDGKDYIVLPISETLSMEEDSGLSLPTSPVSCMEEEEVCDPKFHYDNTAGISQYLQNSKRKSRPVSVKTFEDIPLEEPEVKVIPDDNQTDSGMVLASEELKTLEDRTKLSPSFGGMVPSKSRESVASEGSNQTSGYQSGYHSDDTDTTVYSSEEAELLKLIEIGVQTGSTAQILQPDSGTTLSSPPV

Take `COc1cccc(-c2cc(=O)c3ccccc3o2)c1N` [PD98059, reference compound]: the “effect on induction of ERK phosphorylation by the PCK3145 derivative” value in the assay on ERK [1] is recorded as “antagonized”. The “ERK phosphorylation (pharmacological inhibitor, documented)” value with ERK [2] is reported as “documented pharmacological inhibitor of ERK phosphorylation”.

As to “EWQTDNCETCTCYET (cysteine pairing not given here) [PCK3145]”, the tumor growth entry in the assay on tumor growth is “tumor growth inhibition”.

On to “Thr-Cys(Acm)-Glu-Asn-Cys(Acm)-Thr-Glu-Thr-Gln-Trp-Cys(Acm)-Glu-Thr-Asp-Tyr (TC(Acm)ENC(Acm)TETQWC(Acm)ETDY) [scrambled peptide, negative control, reference compound]”, for which, in the assay on ERK [3], the “ERK phosphorylation induced by VEGF” value is “lack of effect”. The “phosphorylation of VEGFR-2 induced by VEGF” value with VEGFR-2 was “lack of effect”.

B1: Ser Cys Tyr Phe Ile Pro Asn Glu Gly Val Pro Gly Asp Ser Thr Arg Lys Cys Met Asp Leu Lys Gly Asn Lys His Pro Ile Asn Ser Glu Trp Gln Thr Asp Asn Cys Glu Thr Cys Thr Cys Tyr Glu Thr Glu Ile Ser Cys Cys … (protein, listed as Homo sapiens)
chain: SCYFIPNEGVPGDSTRKCMDLKGNKHPINSEWQTDNCETCTCYETEISCCTLVSTPVGYDKDNCQRIFKKEDCKYIVVEKKDPKKTCSVSEWII
notes: Prostate secretory protein, wild type
For the molecule B1, in the assay with tumor cells, the “growth of tumor cells” value is on record as “inhibits growth”. In the assay on skeletal metastasis (animal modeling prostate cancer), the calcium levels entry is on record as “reduction in calcium levels”. For the same molecule, in the assay with skeletal metastasis (in vivo), the “development of skeletal metastasis” value was “reduces the development of skeletal metastasis”.
